Test results from patent US9073820B2, “Pharmaceutical compositions comprising napthamides” (OREGON HEALTH & SCIENCE UNIVERSITY, priority 2011, dated 2015).
Where two headings read alike, the source gives them in different places.

Legend:
[1] = tested on: CREB-mediated gene transcription; assay: CREB reporter (pCRE-RLuc) assay in HEK 293T cells, forskolin-stimulated; assay type: cell-based
Experimental: HEK293T cells in a 10-cm plate were transfected with pCRE-RLuc (6.0 μg) using Lipofectamine™ 2000 (Invitrogen, Carlsbad, Calif.) according to manufacturer's protocol. After 3 h, the transfected cells were collected and replated into 96-well plates (1-2×10^4 cells/well). The cells were allowed to attach to the bottom of the wells for overnight, when compounds of different concentrations were added to the cells. Forskolin (final concentration of 10 μM, LC Laboratories, Woburn, Mass.) was added 30 min after the addition of the compounds. The cells were then incubated at 37° C. for 5 h. The media in the wells were removed and the cells were then lysed in 30 μL of 1×Renilla luciferase lysis buffer (Promega, Madison, Wis.). To measure Renilla luciferase activity, five μL of the lysate was combined with 30 μL of benzyl-coelenterazine (Nanolight, Pinetop, Ariz.) solution in PBS (pH 7.4, 10 μg/mL). The sample protein concentration was determined by Dye Reagent Concentrate (Bio-Rad, Hercules, Calif.). The Renilla luciferase activity was normalized to protein content in each well and expressed as relative luciferase unit/μg protein (RLU/μg protein). The IC50 was derived from non-linear regression analysis of the RLU/μg protein-concentration curve in Prism 5.0 (La Jolla, Calif.).

[2] = tested on: MDA-MB-231 (human breast cancer cells); assay: MTT cell growth inhibition, 72 h, MDA-MB-231; assay type: cell-based; conditions: MDA-MB-231, 72 h, read-out: MDA-MB-231 (GI50)
Experimental: A549 (human lung cancer cells), MCF-7 (human breast cancer cells), MDA-MB-231 (human breast cancer cells) and MDA-MB-468 cells (human breast cancer cells) were maintained in Dulbecco's modified Eagle medium (DMEM, Invitrogen, Carlsbad, Calif.) supplemented with 10% (v/v) fetal calf serum (Sigma, St. Louis, Mo.), 10 μg/mL penicillin and 10 μg/mL streptomycin (Invitrogen, Carlsbad, Calif.) at 37° C. under 5% CO2. On the day of experiment, different concentrations of the drugs (final concentration 10^−8-10^−4 M) in duplicates were added to the cells and the cells were further incubated for 72 h. Then, the number of live cells was quantified by 3-(4,5-dimethyl-2-thiazolyl)-2,5-diphenyl-2H-tetrazolium bromide (MTT reagent, Sigma, St. Louis, Mo.).
The amount of reduced MTT formazan generated by live cells was determined by its absorbance at 570 nm after subtracting the background absorbance at 690 nm. The percent of cell growth was expressed as (A570(treated)−A570(initial))/(A570(vehicle treated)−A570(initial))*100, where A570(initial) represents initial cell population when drugs are added. The GI50 were derived from non-linear regression analysis of the dose-response curve using Prism 4.0 (GraphPad). […] Data were presented as mean±SD of at least two measurements in duplicates unless noted.

[3] = molecular target: T1, KIX-KID (Homo sapiens, UniProt Q92793); assay: KIX-KID inhibition, split Renilla luciferase complementation (RLucC-KIX and KID-RLucN); assay type: binding; conditions: 4° C., 24 h
T1 construct: made in house
Experimental: RLucC-KIX (15 ng) and KID-RLucN-containing cell lysates (0.5 mg) were mixed together in Renilla luciferase lysis buffer (Promega, Madison, Wis.) in the presence of different concentrations of compounds. The final volume of the incubation mixture is 30 μL. The mixture was incubated at 4° C. for 24 h. Then Renilla luciferase activity was measured by combining 5 μL of incubation mixture with 30 μL of coelenterazine solution in PBS (pH 7.4, 10 μg/mL).

[4] = Pharmacokinetics of Compound 4 in mice (IV and PO); assay type: in vivo, BALB/c nude female mice
Experimental: The pharmacokinetics of Compound 4 was assessed in BALB/c nude female mice. Doses were 2 mg/kg administered intravenously (IV) and 20 mg/kg administered orally (PO). The intravenous formulation was administered in 1% N-Methyl-2-pyrrolidone (NMP) in water and was a clear solution. The per os solution was in 1.3% NMP+5% Tween-20® in a clear solution.

[5] = female, BALB/c nude, mouse, plasma, intravenous, 2 mg/kg, 2 mg/kg IV, G1, read-out: Plasma concentration G1
[6] = female, BALB/c nude, mouse, plasma, intravenous, 2 mg/kg, 2 mg/kg IV, G2, read-out: Plasma concentration G2
[7] = female, BALB/c nude, mouse, plasma, intravenous, 2 mg/kg, 2 mg/kg IV, G3, read-out: Plasma concentration G3
[8] = female, BALB/c nude, mouse, plasma, intravenous, 2 mg/kg, 2 mg/kg IV, mean, read-out: Plasma concentration Mean IV
[9] = female, BALB/c nude, mouse, plasma, oral, 20 mg/kg, 20 mg/kg PO, G4, read-out: Plasma concentration G4
[10] = female, BALB/c nude, mouse, plasma, oral, 20 mg/kg, 20 mg/kg PO, G5, read-out: Plasma concentration G5
[11] = female, BALB/c nude, mouse, plasma, oral, 20 mg/kg, 20 mg/kg PO, G6, read-out: Plasma concentration G6
[12] = female, BALB/c nude, mouse, plasma, oral, 20 mg/kg, 20 mg/kg PO, mean, read-out: Plasma concentration Mean PO
[13] = female, BALB/c nude, mouse, plasma, 2 mg/kg IV
[14] = female, BALB/c nude, mouse, plasma, 20 mg/kg PO

T1 sequence (Q92793 587-666 limits assumed): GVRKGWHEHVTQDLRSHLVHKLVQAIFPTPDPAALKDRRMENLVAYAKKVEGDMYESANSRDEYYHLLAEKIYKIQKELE

Which “CREB-mediated gene transcription in HEK 293T cells (in words)” value ([1]; HEK 293T cells) does the source give for `NCCCOc1cc2ccccc2cc1C(=O)NCCCOc1cc2ccccc2cc1C(=O)Nc1ccc(Cl)cc1O` [Compound 4] here?
Its value is “inhibited”.

And the IC50 ([1]; Homo sapiens, HEK-293T, 5 h, read-out: CREB reporter inhibition (IC50))?
The IC50 was 2220 ± 380 nM.

And the GI50 [2]?
The GI50 was 230 ± 6 nM.

And the IC50 [3]?
The IC50 was 2540 ± 280 nM.

And the CI ([4]; 2 mg/kg IV)?
Its CI is 12.7 mL/min/kg.

And the concentration at 0.083 hr [4, 5]?
The concentration at 0.083 hr was 1610 ng/mL.

And the concentration at 0.083 hr [4, 6]?
The concentration at 0.083 hr was 1980 ng/mL.

And the concentration at 0.083 hr [4, 7]?
Its concentration at 0.083 hr is 1540 ng/mL.

And the concentration at 0.083 hr [4, 8]?
Its concentration at 0.083 hr is 1710 ng/mL.

And the concentration at 0.25 hr [4, 5]?
The concentration at 0.25 hr was 1140 ng/mL.

And the concentration at 0.25 hr [4, 6]?
The concentration at 0.25 hr was 1900 ng/mL.

What about the concentration at 0.25 hr [4, 7] of the same compound?
Its concentration at 0.25 hr is 1610 ng/mL.

And the concentration at 0.25 hr [4, 8]?
Its concentration at 0.25 hr is 1550 ng/mL.

And the concentration at 0.5 hr [4, 5]?
The concentration at 0.5 hr was 1130 ng/mL.

And the concentration at 0.5 hr [4, 6]?
Its concentration at 0.5 hr is 966 ng/mL.

And the concentration at 0.5 hr [4, 7]?
The concentration at 0.5 hr was 1170 ng/mL.

What about the concentration at 0.5 hr [4, 8] of the same compound?
The concentration at 0.5 hr was 1090 ng/mL.

And the concentration at 1 hr [4, 5]?
Its concentration at 1 hr is 528 ng/mL.

And the concentration at 1 hr [4, 6]?
Its concentration at 1 hr is 378 ng/mL.

What about the concentration at 1 hr [4, 7] of the same compound?
The concentration at 1 hr was 419 ng/mL.

What about the concentration at 1 hr [4, 8] of the same compound?
The concentration at 1 hr was 442 ng/mL.

What about the concentration at 2 hr [4, 5] of the same compound?
Its concentration at 2 hr is 275 ng/mL.

What about the concentration at 2 hr [4, 6] of the same compound?
The concentration at 2 hr was 178 ng/mL.

And the concentration at 2 hr [4, 7]?
Its concentration at 2 hr is 105 ng/mL.

And the concentration at 2 hr [4, 8]?
Its concentration at 2 hr is 186 ng/mL.

And the concentration at 4 hr [4, 5]?
The concentration at 4 hr was 59.9 ng/mL.

What about the concentration at 4 hr [4, 6] of the same compound?
Its concentration at 4 hr is 71 ng/mL.

And the concentration at 4 hr [4, 7]?
The concentration at 4 hr was 58.1 ng/mL.

What about the concentration at 4 hr [4, 8] of the same compound?
The concentration at 4 hr was 63 ng/mL.

And the concentration at 8 hr [4, 5]?
Its concentration at 8 hr is 30.2 ng/mL.

What about the concentration at 8 hr [4, 6] of the same compound?
The concentration at 8 hr was 58.7 ng/mL.

And the concentration at 8 hr [4, 7]?
Its concentration at 8 hr is 56.6 ng/mL.

And the concentration at 8 hr [4, 8]?
Its concentration at 8 hr is 48.5 ng/mL.

What about the concentration at 24 hr [4, 5] of the same compound?
Its concentration at 24 hr is 15.3 ng/mL.

What about the concentration at 24 hr [4, 6] of the same compound?
Its concentration at 24 hr is 16.4 ng/mL.

And the concentration at 24 hr [4, 7]?
The concentration at 24 hr was 13.3 ng/mL.

And the concentration at 24 hr [4, 8]?
The concentration at 24 hr was 15 ng/mL.

What about the concentration at 0.25 hr [4, 9] of the same compound?
The concentration at 0.25 hr was 75.5 ng/mL.

What about the concentration at 0.25 hr [4, 10] of the same compound?
The concentration at 0.25 hr was 92.7 ng/mL.

And the concentration at 0.25 hr [4, 11]?
The concentration at 0.25 hr was 101 ng/mL.

And the concentration at 0.25 hr [4, 12]?
Its concentration at 0.25 hr is 89.7 ng/mL.

And the concentration at 0.5 hr [4, 9]?
The concentration at 0.5 hr was 92 ng/mL.

And the concentration at 0.5 hr [4, 10]?
The concentration at 0.5 hr was 82.4 ng/mL.

What about the concentration at 0.5 hr [4, 11] of the same compound?
Its concentration at 0.5 hr is 166 ng/mL.

What about the concentration at 0.5 hr [4, 12] of the same compound?
The concentration at 0.5 hr was 114 ng/mL.

What about the concentration at 1 hr [4, 9] of the same compound?
The concentration at 1 hr was 402 ng/mL.

What about the concentration at 1 hr [4, 10] of the same compound?
Its concentration at 1 hr is 465 ng/mL.

And the concentration at 1 hr [4, 11]?
Its concentration at 1 hr is 139 ng/mL.

What about the concentration at 1 hr [4, 12] of the same compound?
The concentration at 1 hr was 335 ng/mL.

What about the concentration at 2 hr [4, 9] of the same compound?
The concentration at 2 hr was 353 ng/mL.

What about the concentration at 2 hr [4, 10] of the same compound?
The concentration at 2 hr was 75 ng/mL.

And the concentration at 2 hr [4, 11]?
Its concentration at 2 hr is 269 ng/mL.

What about the concentration at 2 hr [4, 12] of the same compound?
The concentration at 2 hr was 232 ng/mL.

What about the concentration at 4 hr [4, 9] of the same compound?
Its concentration at 4 hr is 128 ng/mL.

What about the concentration at 4 hr [4, 10] of the same compound?
The concentration at 4 hr was 65.9 ng/mL.

What about the concentration at 4 hr [4, 11] of the same compound?
The concentration at 4 hr was 118 ng/mL.

And the concentration at 4 hr [4, 12]?
The concentration at 4 hr was 104 ng/mL.

What about the concentration at 8 hr [4, 9] of the same compound?
Its concentration at 8 hr is 45.8 ng/mL.

What about the concentration at 8 hr [4, 10] of the same compound?
The concentration at 8 hr was 30.1 ng/mL.

And the concentration at 8 hr [4, 11]?
Its concentration at 8 hr is 41.7 ng/mL.

And the concentration at 8 hr [4, 12]?
Its concentration at 8 hr is 39.2 ng/mL.

And the concentration at 12 hr [4, 9]?
Its concentration at 12 hr is 46 ng/mL.

What about the concentration at 12 hr [4, 10] of the same compound?
Its concentration at 12 hr is 47.6 ng/mL.

And the concentration at 12 hr [4, 11]?
The concentration at 12 hr was 48.2 ng/mL.

What about the concentration at 12 hr [4, 12] of the same compound?
The concentration at 12 hr was 47.3 ng/mL.

And the concentration at 24 hr [4, 9]?
The concentration at 24 hr was 7.2 ng/mL.

And the concentration at 24 hr [4, 10]?
The concentration at 24 hr was 12.9 ng/mL.

And the concentration at 24 hr [4, 11]?
Its concentration at 24 hr is 34.1 ng/mL.

And the concentration at 24 hr [4, 12]?
The concentration at 24 hr was 18.1 ng/mL.

And the AUC(0-inf) [4, 13]?
Its AUC(0-inf) is 2630 ng·h/mL.

And the AUC(0-t) [4, 13]?
Its AUC(0-t) is 2420 ng·h/mL.

What about the half-life [4, 13] of the same compound?
The half-life was 9.6 h.

And the Vd ([4]; female, BALB/c nude, mouse, plasma, 2 mg/kg IV, read-out: Vss)?
The Vd was 4.8 L/kg.

What about the AUC(0-inf) [4, 14] of the same compound?
Its AUC(0-inf) is 1860 ng·h/mL.

And the AUC(0-t) [4, 14]?
The AUC(0-t) was 1620 ng·h/mL.

What about the Cmax [4, 14] of the same compound?
The Cmax was 335 ng/mL.

What about the Tmax [4, 14] of the same compound?
The Tmax was 1 h.

What about the half-life [4, 14] of the same compound?
The half-life was 9.1 h.

What about the bioavailability ([4]; female, BALB/c nude, mouse, plasma, 20 mg/kg PO vs 2 mg/kg IV) of the same compound?
The bioavailability was 7.1%.
